According to PubChem BioAssay AID504738 (National Center for Advancing Translational Sciences (NCATS), 2011):

Test system: kinetic aqueous solubility, PBS pH 7.4, LC-UV/MS
Experiment: Inhibitors of Bloom's syndrome helicase: Aqueous Profiling Assay
Excerpt: Survival of cells and the faithful propagation of the genome depend on elaborate mechanisms of detecting and repairing DNA damage. Treatment of advanced cancer relies on radiation therapy or chemotherapy, which kill cancer cells by causing extensive DNA damage. It is often found, that cancer cells develop resistance to therapy through enhanced activity of DNA repair functions; this has led to an increased interest in developing drugs that interfere with DNA repair, which could sensitize cancer cells to conventional therapy. Bloom syndrome helicase (BLM), is important in resolving abnormal DNA structures formed during replication or homologous recombination. Shutting down the expression of BLM leads to chromosomal instability and higher radiation sensitivity in cultured cells. This bioassay provides profiling data on aqueous kinetic solubility (PBS @ pH 7.4) of one of the lead compounds developed in the APE1 inhibitors project. NIH Chemical Genomics Center [NCGC] NIH Molecular Libraries Probe Production Centers Network [MLPCN] MLSCN Grant: MH087284 PI Name: Dr. Opher Gileadi, Structural Genomics Consortium, University of Oxford, UK
1. 8ul of reference and test compound stock solution were added to 392ul 100mM phosphate buffer (pH 7.4) 2. Sample tubes were shaken for 1 hr (1000 rpm) at room temperature 3. […] Concentration of the supernatant was determined by LC-UV or LC-MS/MS

solubility: 2 µM
Structure (SMILES): O=C(Nc1ccc(F)c(C(F)(F)F)c1)Nc1nnc(-c2ccncc2)s1
